Assay results published in US20220047525A1, “TRANSDERMAL PHARMACEUTICAL FORMULATIONS OF NABILONE ALONE AND IN COMBINATION WITH CANNABINOIDS” (Pike Therapeutics, Inc., priority 2020, published 2022).

What was measured:
CB2 = CB2 (Homo sapiens, UniProt P34972); conditions: cited from earlier work
[1] = in vivo; cited from earlier work
[2] = Tolerability of CBD and THCV daily doses; format: in vivo
CB1 = CB1 (Homo sapiens, UniProt P21554); conditions: cited from earlier work
Sequence of CB1 (P21554 whole entry, species assumed): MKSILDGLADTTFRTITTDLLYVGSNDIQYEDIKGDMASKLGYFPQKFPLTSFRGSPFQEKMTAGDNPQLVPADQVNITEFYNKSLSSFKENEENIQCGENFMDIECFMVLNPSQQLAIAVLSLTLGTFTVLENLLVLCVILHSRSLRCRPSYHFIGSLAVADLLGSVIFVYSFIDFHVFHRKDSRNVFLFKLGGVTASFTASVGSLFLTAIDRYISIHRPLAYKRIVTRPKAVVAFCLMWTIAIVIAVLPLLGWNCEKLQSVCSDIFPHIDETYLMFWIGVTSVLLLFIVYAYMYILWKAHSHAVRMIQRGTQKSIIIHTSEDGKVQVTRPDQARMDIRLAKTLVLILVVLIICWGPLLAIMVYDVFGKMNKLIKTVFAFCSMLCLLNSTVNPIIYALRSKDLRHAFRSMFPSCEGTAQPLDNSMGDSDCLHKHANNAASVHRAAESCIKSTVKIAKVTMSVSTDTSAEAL

Sequence of CB2 (P34972 whole entry, species assumed): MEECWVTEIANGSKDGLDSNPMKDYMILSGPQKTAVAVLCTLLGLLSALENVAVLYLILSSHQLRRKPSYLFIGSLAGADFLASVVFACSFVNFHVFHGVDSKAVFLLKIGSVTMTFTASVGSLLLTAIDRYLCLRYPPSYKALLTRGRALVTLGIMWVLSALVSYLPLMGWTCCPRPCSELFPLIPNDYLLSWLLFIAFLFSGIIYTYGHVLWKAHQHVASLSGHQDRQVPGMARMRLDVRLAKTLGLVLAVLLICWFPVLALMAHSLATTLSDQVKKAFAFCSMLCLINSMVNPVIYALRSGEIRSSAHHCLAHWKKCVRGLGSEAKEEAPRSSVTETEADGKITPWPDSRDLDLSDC

CCCn1c(C)c(C(=O)c2ccc(C)c3ccccc23)c2ccccc21 [JWH-148]
selectivity for CB2 over the CB1 subtype (CB2): more than 8 times

CCCCCCC(C)(C)c1cc(O)c2c(c1)OC(C)(C)[C@@H]1CCC(=O)C[C@@H]21 (racemic) [Cesamet, (±)-trans-3-(1,1-dimethylheptyl)-6,6a,7,8,10,10a-hexahydro-lhydroxy-6-6-dimethyl-9H-dibenzo[b,d]pyran-9-one]
reducing spasticity [1]: positive results

CCCc1cc(O)c2c(c1)OC(C)(C)[C@@H]1CCC(C)=C[C@@H]21 [THCV, tetrahydrocannbivarin]
tolerability ([2]; 10 mg THCV per day): well tolerated

CCCn1cc(C(=O)c2ccc(C)c3ccccc23)c2ccccc21 [JWH-120]
selectivity for CB2 (CB2): 173 fold

CCCCCn1cc(C(=O)c2cccc3cccc(Br)c23)c2ccccc21 [JWH-424]
Ki (CB2): 5.44 nM
Ki (CB1): 20.9 nM

CCCCCc1cc(O)c2c(c1)OC(C)(C)[C@@H]1CCC(C)=C[C@@H]21 [Marinol]
reducing spasticity [1]: positive results

CCCCCCC(C)(C)c1cc(O)c2c(c1)oc(=O)c1ccc(OC)cc12 [AM-1710]
selectivity for CB2 over CB1 (CB2): 54 ×

CCCCCCC(C)(C)c1cc(OC)c2c(c1)OC(C)(C)C1CCC(O)CC21 (stereo not drawn) [JWH-350, 11-nor-1-methoxy-3-(1′,1′-dimethylheptyl)-9α-hydroxyhexahydrocannabinol]
selectivity for CB2 (CB2): 33 fold

CCCCC/C=C\C/C=C\C/C=C\C/C=C\CCCC(=O)N[C@H](C)CO [Methanandamide]
Ki (CB1): 17.9 nM

CCCCCn1cc(C(=O)c2ccc(Cl)c3ccccc23)c2ccccc21 [JWH-398]
Ki (CB2): 2.8 nM
Ki (CB1): 2.3 nM

C=C(C)[C@@H]1CCC(C)=C[C@H]1c1c(O)cc(CCCCC)cc1O [CBD, 2-[(1R,6R)-6-isopropenyl-3-methylcyclohex-2-en-1-yl]-5-pentylbenzene-1,3-diol]
tolerability ([2]; 200 mg CBD per day): well tolerated
